The source of these data is US10705094B2, “TNF receptor signaling modulator assay” (UCB Biopharma SRL, priority 2015, dated 2020).

Assay [1] deals with T1, TNFα (Homo sapiens, UniProt P01375). Kind of assay: Surface plasmon resonance kinetics of compound binding to immobilised TNFα (Biacore T100/T200). The protocol:
Surface plasmon resonance was used to measure the association rate, the dissociation rate and the affinity of the compounds of formulae (1) and (2) for TNFα (FIGS. 13A and B). For the purpose of this study a Biacore T100/T200 was used.
TNFα was immobilised at pH5 to a level of 5-8 KRU onto a CMS sensor in HBS-P buffer (10 mM HEPES pH 7.4, 0.15 M NaCl, 0.005% Surfactant P20, BIAcore, GE Healthcare). The TNFα was then equilibrated in HBS-P with 5% DMSO for at least 5 hours. The samples were diluted from 10 mM stocks into DMSO matched buffer and left to solubilise for at least 5 hours. The flow rate was 30 μL/min.
This assay was performed by adding 4 or 5 concentrations of compound starting from a highest concentration of 25 μM for compound of formula (1) and 1 μM for compound of formula (2) and then serially diluting this sample. Background subtraction binding curves were analysed using the BIAevaluation software following standard procedures. Binding, affinity and kinetic parameters were determined using Biacore software. The kinetic data were fitted using the levenberg marquardt algorithm.
Background: In SPR one partner is held on a chip, and binding of the other changes the refractive index at the surface.

For assay [2], the target named is T1, TNFα. Kind of assay: L929 murine fibrosarcoma cell-killing (neutralisation) assay. Set-up: host or cells: added to L929 murine fibrosarcoma cells (ECACC, 85011425). The settings on record: L929 cells; read-out: IC50 (inhibition of cell killing activity of human TNFα). In kind it is cell-based, mouse. The procedure: The L929 neutralisation assays were carried out using the protocol disclosed in Baarsch M J J et al (Immunol Methods 1991; 140: 15-22) and Galloway C J et al J (Immunol Methods 1991; 140: 37-43).
Briefly, L929 cells (ECACC, 85011425) were cultured in culture medium consisting of RPMI 1640 (Gibco) containing 10% FCS (PAA), 2 mM glutamine (Gibco), 50 U/ml penicillin (Gibco) and 50 μg/ml streptomycin (Gibco). When they were subcultured, the cells were washed three times with 10 mL Dulbecco's phosphate-buffered saline without calcium and magnesium (Gibco) and 3 ml of trypsin-EDTA (Gibco) was then added for 2 minutes to remove the cells from the flask. Culture medium was added to neutralise the trypsin and the cells pipetted up and down to remove any clumps.
The L929 cells were split 1/2 or 1/3 the day before use and cultured for a further 24 hours. The flasks were then trypsinised as above and 2×10^4 cells in 100 μl were added per well of a 96 well flat-bottomed plate (Becton Dickinson). The plates were cultured for 24 hours before the assay was set up.
Serial dilutions were made from DMSO stocks of the compounds.
The assay medium was the same as culture medium but also contained 1 μg/ml actinomycin D (Sigma). The medium was flicked off the plates and the assay samples plus TNFα, standards and controls were added in 100 μl volumes in duplicate. Plates were incubated for a further 16 hours and then 10 μl per well of a 5 mg/ml methylthiazoletetrazolium (MTT; Sigma) solution in culture medium was added for a further 4 hours. The reaction was stopped by the addition of 100 μl of solubilisation buffer containing 20% sodium dodecyl sulphate (SDS, BDH) dissolved in 50% dimethyl formamide (DMF; BDH) and 50% deionised water.
After overnight incubation at 37° C. to allow the dye to dissolve, the plates were read on a Multiskan EX plate reader (Labsystem) at 570 nm with subtraction at 630 nm. Data were analysed using the Genesis software package.

In assay [3] the target is T1, TNFα. Kind of assay: Fluorescence polarization assay, competition with the compound of formula (4) for TNFα. The settings on record: TNFα 50 nM, compound of formula (4) 10 nM, 5% DMSO; read-out: IC50 (inhibition of binding of the compound of formula (4) to TNFα). The procedure: The final concentrations of TNFα and the compound of formula (4) were 50 nM and 10 nM respectively in a total assay volume of 25 μl. Plates were read on an Analyst HT reader. An IC50 was calculated using xlfit (4 parameter logistic model) in Activity Base.
C87 was preincubated with TNFα for 1 hour prior to assay against the fluorescent compound (probe). Competition with the fluorescent compound either directly (binding at the same site) or indirectly (disrupting TNF) is detected by a reduction in FP.
In general terms: Fluorescence polarisation rises when a labelled molecule tumbles more slowly, as on binding a larger partner.

For assay [4], the target named is T2, TNFα binding to the TNF receptor (TNFR-ECD) (Homo sapiens, UniProt P01375).
T2 construct: purchased R&D Systems
T2 sequence (P01375 77-233 limits assumed): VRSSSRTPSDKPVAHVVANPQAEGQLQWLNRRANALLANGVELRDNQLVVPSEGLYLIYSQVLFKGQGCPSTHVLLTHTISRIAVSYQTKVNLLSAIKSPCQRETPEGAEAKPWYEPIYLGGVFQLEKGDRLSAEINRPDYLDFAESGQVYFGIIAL
Nature of the assay: Meso Scale Discovery (MSD) assay of TNFα binding to plate-coated TNFR-ECD. The note with it: single point assay, 100 μM compound, 5% final v/v DMSO. The protocol:
384 well uncoated plates (standard binding) Meso Scale Discovery plates (MSD) were coated overnight with the extracellular domain of TNFR (TNFR-ECD) (10 μl, 1 ug/mL in PBS). To ensure even distribution plates were centrifuged at 1000 rpm for 2 minutes. The plates were then sealed and stored at +4° C. overnight.
The wells of the plates were then washed three times in 50 μl phosphate buffered saline pH 6.5 (PB) with 0.05% Tween 20 (wash buffer), and then blocked with 50 μl 2% BSA. The plates were then incubated at room temperature on a shaker (600 rpm) for 2 hours. After this incubation plates were washed (3×50 μl wash buffer per well).
During the blocking incubation, compounds of formulae (1) and (2) were pre-incubated with TNF (R&D Systems) prior to addition to the pre-blocked and washed MSD plates. For a single point assay as shown in FIG. 3A the compounds were assayed at a final concentration of 100 μM (5% final v/v DMSO).
Pre-diluted compounds of formulae (1) and (2) were added at a ratio of 1:1 to 4 ng/mL TNF (final concentration 2 ng/ml), and then incubated at room temperature on a shaker 600 rpm for 1 hour.
10 μl of pre-incubated mixtures of compound of formulae (1) or (2) with TNFα were added to the prepared MSD plate and incubated at room temperature on a shaker for 1 hour.
The plates were then washed with wash buffer (3×50 μl per well). Sulfo-tagged anti-TNF polyclonal antibody was then added to each well and the plates incubated for a further 1.5 hours at room temperature on a shaker.
The plates were then washed (3×50 μl wash buffer per well), followed by the addition of 50 μl MSD Read buffer T plus surfactant (diluted 1 in 2 in H2O) and read on a SECTOR Imager 6000.
For single point assays percentage inhibition was calculated using a control sample without compound.
For EC50s determination results were calculated by standard means using a 4 parameter logistic model (sigmoidal dose response model).

pIC50, pKd: −log10 of the molar value.

T1 sequence (P01375 77-233 limits assumed): as above

As usually defined, the pKd is −log10 of the Kd, conventionally taken in molar units. In general, kon refers to a measure of how fast the partners come together. Higher therefore signals faster complex formation. Broadly, the koff is the rate constant with which the complex falls apart. The term pIC50 denotes the IC50 on a negative log10 scale, so that one unit is a factor of ten. `O=C1CCCN1c1cccc(OCc2nc3ccc(-c4ccc(=O)[nH]c4)cc3n2Cc2ccccc2OC(F)F)c1` [Compound (3), 5-(1-[2-(Difluoromethoxy)benzyl]-2-{[3-(2-oxo-pyrrolidin-1-yl)phenoxy]methyl}-1H-benzimidazol-6-yl)-pyridin-2(1H)-one]: on TNFα [1] (calculated from koff/kon, read-out: dissociation constant (KD)), the negative logarithm of the Kd (pKd) is 8.15. The kon at TNFα [1] (immobilised TNFα, HBS-P with 5% DMSO) is 5470 M⁻¹ s⁻¹. For the same compound, the off-rate constant (koff) on TNFα [1] (immobilised TNFα, HBS-P with 5% DMSO, read-out: dissociation rate constant (koff)) turned out to be 4.07e-05 s⁻¹. Also, the pIC50 on TNFα [2] was 7.68; on TNFα [3], 7.70.

As to `Cc1cc2occ(CN(C)CCN(C)Cc3cn(-c4cccc(C(F)(F)F)c4)c4ccccc34)c(=O)c2cc1C` [SPD-304, reference compound], the “% inhibition of TNFα binding to the TNF receptor” value in assay [4] is given as “+80%”.
